Test results as given in PubChem BioAssay (NCI).
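Protocol summary: plate cells (96-well), add compound at 5 concentrations, incubate 48 h, interpolate endpoints linearly. At the TGI there is no net growth.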

Legend:
Test in all cases: DTP human tumour cell line panel, 48 h
[1] = tested on: MALME-3M melanoma
[2] = tested on: LOX IMVI melanoma
[3] = tested on: U251 CNS
[4] = tested on: SK-OV-3 ovarian
[5] = tested on: OVCAR-4 ovarian
[6] = tested on: NCI-H460 lung
[7] = tested on: SF-268 CNS
[8] = tested on: TK-10 renal
[9] = tested on: SN12C renal
[10] = tested on: NCI-H522 lung
[11] = tested on: NCI-H226 lung
[12] = tested on: KM12 colon
[13] = tested on: SR leukemia
[14] = tested on: SNB-75 CNS
[15] = tested on: 786-0 renal
[16] = tested on: NCI/ADR-RES ovarian
[17] = tested on: CCRF-CEM leukemia
[18] = tested on: ACHN renal

SMILES | TGI [1] | TGI [2] | TGI [3] | TGI [4] | TGI [5] | TGI [6] | TGI [7] | TGI [8] | TGI [9] | TGI [10] | TGI [11] | TGI [12] | TGI [13] | TGI [14] | TGI [15] | TGI [16] | TGI [17] | TGI [18]
CSC1=C(C(=O)Nc2ccc(Cl)cc2)C(N)=NC1=O | > 100 µM | > 100 µM | > 100 µM | > 100 µM | > 100 µM | > 100 µM | > 100 µM | > 100 µM | > 100 µM | > 100 µM | > 100 µM | > 100 µM | > 100 µM | > 100 µM | > 100 µM | > 100 µM | > 100 µM | 
COc1cc(OC)cc(Oc2nc3ccccc3nc2C(=O)O)c1 | > 100 µM | > 100 µM | > 100 µM | > 100 µM | > 100 µM | > 100 µM | > 100 µM | > 100 µM |  | > 100 µM | > 100 µM | > 100 µM | > 100 µM | > 100 µM | > 100 µM | > 100 µM | > 100 µM | > 100 µM
O=C1/C(=C/c2cccnc2)C(n2cccc2)c2c(Br)sc(Br)c21 (stereo not given) | 10.7 µM | 3.89 µM | 3.08 µM | 29.3 µM | 3.83 µM | 18.9 µM | 4.3 µM | 4.28 µM | 14.2 µM | 12.6 µM | > 100 µM | 8.45 µM | 6.37 µM | 3.67 µM | 6.17 µM | > 52 µM | 10.1 µM | 7.69 µM
COc1cc2cc(C(=O)N3CC(CCl)c4c3cc([N+](=O)[O-])c3ccccc43)[nH]c2c(OC)c1OC (stereo not given) | > 100 µM | > 100 µM | > 100 µM | > 100 µM | > 100 µM | > 63.8 µM | > 100 µM | > 100 µM | > 100 µM | > 100 µM | > 100 µM | > 100 µM | 19.1 µM | > 100 µM | > 100 µM | > 78.3 µM | > 100 µM | > 100 µM
CC(C)(C)OC(=O)N(O)[C@@H]1C=C[C@H](n2cnc3c(N)ncnc32)C1 | > 100 µM | > 100 µM | > 100 µM | > 100 µM | > 100 µM | > 100 µM | > 100 µM | > 100 µM | > 100 µM | > 100 µM | 96.9 µM | > 100 µM | > 100 µM | > 100 µM | > 100 µM | > 100 µM | > 100 µM | > 100 µM
CSc1c(C(=O)Nc2ccc(Cl)cc2)c(N)nn1-c1ccccc1 | > 100 µM | > 100 µM | > 100 µM | > 100 µM | > 23.8 µM | > 100 µM | > 100 µM | > 100 µM | > 100 µM | > 100 µM | > 100 µM | > 100 µM | > 100 µM | > 86.3 µM | > 43.2 µM | > 100 µM | > 100 µM | > 100 µM
CCCCON1C[C@@H](O)C(O)[C@@H](O)C1 (stereo not given in full) | > 100 µM | > 100 µM | > 100 µM |  | > 100 µM | > 100 µM | > 100 µM | > 100 µM | > 100 µM | > 100 µM | > 100 µM | > 100 µM | > 100 µM | > 100 µM | > 100 µM | > 100 µM | > 100 µM | > 100 µM
C=CC(Cl)(CBr)CCC(Br)=C(C)C (stereo not given) | 34.5 µM | 37.8 µM | 30.5 µM |  | 46.6 µM | 38 µM | 43.3 µM | 58.8 µM | 33 µM | 36.8 µM | > 100 µM | 40.7 µM | > 100 µM | 91.4 µM | 67.6 µM | 91.2 µM | > 100 µM | 49.7 µM
COc1ccccc1C1SCC(=O)N1c1ccc(-n2c(-c3ccccc3)nc3ccccc3c2=O)cc1 (stereo not given) | > 100 µM | > 100 µM | > 100 µM | > 100 µM | 56.7 µM | > 100 µM | > 100 µM | > 100 µM | > 100 µM | > 100 µM | > 100 µM | > 100 µM | > 100 µM | 43.1 µM | > 100 µM | > 100 µM | > 100 µM | > 100 µM
COc1cc(N=CN(C)C)c2ncccc2c1 | > 100 µM | > 100 µM | > 100 µM | > 100 µM | > 100 µM |  | > 100 µM | > 100 µM | > 100 µM | > 100 µM | > 100 µM |  | 19.3 µM | > 100 µM | > 100 µM | > 100 µM | > 100 µM | > 100 µM
O=C(O)CNC(=O)CO/N=C1/C(c2c(O)[nH]c3ccccc23)=Nc2ccccc21 | > 100 µM | > 100 µM | > 100 µM | > 100 µM | > 100 µM | > 100 µM | > 100 µM | > 100 µM | > 100 µM | > 100 µM | > 100 µM | > 100 µM | > 100 µM | > 100 µM | > 100 µM | > 100 µM | > 100 µM | > 100 µM
COC1=C2CC(C)CC(OC)[C@@H](OC(=O)CCN)[C@H](C)/C=C(\C)C(OC(N)=O)C(OC)/C=C\C=C(/C)C(=O)NC(=CC1=O)C2=O (stereo not given in full) | 16.3 µM | 2.22 µM | 6.19 µM | 25.4 µM | 12.6 µM | 24.4 µM | 26.2 µM | 20.4 µM | 14.2 µM | 0.658 µM | 40.6 µM | 8.36 µM | 8.71 µM | 35.1 µM | 14.2 µM | 34.5 µM | 1.49 µM | 16 µM
